Values of other authors, collected in US20040019012A1, “Ophthalmic antibiotic drug formulations containing a cyclodextrin compound and cetyl pyridinium chloride” (priority 2002, published 2004).

Legend:
[1] = tested on: infective gram-positive bacteria; settings: minimum inhibitory concentration for 90% of the target organisms
gram-positive organisms = settings: Staphylococcus, Streptococcus, Enterococcus, Bacillus, Corynebacterium, Chlamydia, Neisseria

## CC(=O)NC[C@H]1CN(c2ccc(N3CCOCC3)c(F)c2)C(=O)O1 [linezolid, (S)-N-[[3-[3-fluoro-4-(4-morpholinyl)phenyl]-2-oxo-5-oxazolidinyl]methyl]acetamide]
other
  practical limit of concentration in aqueous solution: about 2 mg/ml
[1]
  MIC90: about 4 μg/ml
gram-positive organisms
  antibacterial activity against gram-positive organisms: strong antibacterial activity
